Measured values as given in patent US20030158254A1, “Engineering absorption of therapeutic compounds via colonic transporters” (XenoPort, Inc., priority 2002, published 2003).

Legend:
[1] = target: T1, hSMVT (Homo sapiens, UniProt Q9Y289); experiment: Radiolabeled competition assay in SMVT-expressing CHO cells; format: cell-based
T1 sequence (Q9Y289 1-635): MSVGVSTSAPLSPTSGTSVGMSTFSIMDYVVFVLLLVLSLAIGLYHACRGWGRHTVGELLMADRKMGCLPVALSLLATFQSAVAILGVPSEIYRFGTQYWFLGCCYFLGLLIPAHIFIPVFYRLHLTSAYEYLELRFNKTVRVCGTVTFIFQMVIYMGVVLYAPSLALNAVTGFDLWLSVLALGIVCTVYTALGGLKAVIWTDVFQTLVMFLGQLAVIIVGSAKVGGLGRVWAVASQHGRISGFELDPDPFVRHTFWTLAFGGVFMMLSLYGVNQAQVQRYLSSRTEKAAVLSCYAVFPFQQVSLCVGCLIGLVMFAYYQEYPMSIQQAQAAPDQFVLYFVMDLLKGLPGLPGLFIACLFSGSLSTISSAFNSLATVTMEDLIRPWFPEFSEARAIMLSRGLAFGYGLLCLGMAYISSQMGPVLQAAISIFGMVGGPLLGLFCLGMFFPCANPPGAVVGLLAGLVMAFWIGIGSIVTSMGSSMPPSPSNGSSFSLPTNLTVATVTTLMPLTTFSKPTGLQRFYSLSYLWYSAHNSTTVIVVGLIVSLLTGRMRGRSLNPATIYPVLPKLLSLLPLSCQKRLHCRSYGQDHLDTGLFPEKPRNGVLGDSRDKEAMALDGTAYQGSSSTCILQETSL
Source text: The complete open reading frame of human ATBO+(SLC6A14) and SMVT (SLC5A6) were amplified from human cDNA prepared from liver or intestine mRNA. […] Amplified PCR products were cloned into a modified version of the mammalian expression vector pcDNA3 (termed pMO) that was engineered to contain the 5′ and 3′ untranslated regions from the Xenopus beta-globin gene. All clones were completely sequenced and tested for function by transient transfection in HEK293 cells.
For cell uptake studies, stable CHOK1 clones were seeded into polylysine coated 96-well microtitre plates and grown for 2-3 days. Cells were incubated with experimental solutions (combinations of radiolabeled and unlabeled compounds) for 30 minutes at room temperature, washed four times, and lysed in scintillation solution. Accumulation of radiolabeled molecules was measured in a microtitre scintillation plate reader (Perkin Elmer). Inhibition constants (IC50s) were calculated using curve-fitting software (Prism).

[2] = target: T1, hSMVT; experiment: Transport currents in SMVT-expressing Xenopus oocytes, normalized to biotin; format: cell-based; conditions: response relative to biotin, transporter-expressing oocytes, test compound 0.5 mM
Source text: The complete open reading frame of human ATBO+(SLC6A14) and SMVT (SLC5A6) were amplified from human cDNA prepared from liver or intestine mRNA. Gene-specific oligonucleotide primers were designed against Genbank sequences (AF151978 and NM-021095). Amplified PCR products were cloned into a modified version of the mammalian expression vector pcDNA3 (termed pMO) that was engineered to contain the 5′ and 3′ untranslated regions from the Xenopus beta-globin gene. All clones were completely sequenced and tested for function by transient transfection in HEK293 cells.
cRNA for oocyte expression was prepared by linearization of plasmid cDNA and in vitro transcription using T7 polymerase (Epicentre Ampliscribe kit). Xenopus oocytes were prepared and maintained as previously described (Collins et al., PNAS […]:5456-5460 (1997)) and injected with 10-30 ng RNA. Transport currents were measured 2-6 days later using two-electrode voltage-clamp (Axon Instruments). All experiments were performed using a modified oocyte Ringers solution (90 mM NaCl, 2 mM KCl, 1.8 mM CaCl2, 1 mM MgCl2, and 10 mM Na HEPES, pH 7.4; in Na^+-free solutions 90 mM choline chloride was substituted for NaCl). The membrane potential of oocytes was held at −60 mV and current traces acquired using PowerLab software (AD Instruments). Full 7-concentration dose-responses were performed for each compound. […] Half-maximal concentrations were calculated using non-linear regression curve fitting software (Prism) with the Hill co-efficient fixed to 1. To ensure that currents were specific for the over-expressed transporter, all compounds were tested against uninjected oocytes. Since both ATBO+ and SMVT require Na^+ for transport, we confirmed transport specificity by application of the compounds in a Na^+-free solution.
In vitro transport data for selected compounds on hSMVT-expressing cells

[3] = Uptake of compounds through the rat colon (intracolonic dosing, gabapentin in blood by LC/MS/MS); format: in vivo; conditions: dose equivalent to 25 mg gabapentin per kg, FIG. 3A
Protocol: Rats were obtained commercially and were pre-cannulated in the both the ascending colon and the jugular vein. Animals were conscious at the time of the experiment. All animals were fasted overnight and until 4 hours post-dosing. Prodrugs were administered as a solution (in water or polyethylene glycol 400) directly into the colon via the cannula at a dose equivalent to 25 mg of gabapentin per kg. Blood samples (0.5 mL) were obtained from the jugular cannula at intervals over 8 hours and were quenched immediately by addition of acetonitrile/methanol to prevent further conversion of the prodrug. Blood samples were analyzed as described in the attached sample analysis summary.
1. In blank 1.5 mL eppendorf tubes, add 300 μL of a 50/50 mixture of acetonitrile/methanol and 20 μL of the p-chlorophenylalanine as internal standard.
2. Rat blood was collected at different time points and immediately 100 μL of blood was added into the eppendorf tube and vortex to mix.
3. 10 μL of the gabapentin standard solution (0.04, 0.2, 1, 5, 25, 100 μg/mL) was added to 90 μL of blank rat blood to make up a final calibration standard (0.004, 0.02, 0.1, 0.5, 2.5, 10 μg/mL). […]
API 2000 LC/MS/MS mass spectrometer equipped with Shidmadzu 10ADVp binary pumps and an autosampler (CTC Analytics AG, High Throughput Screening-PAL) were used in the analysis. […] The peaks were integrated by the Analyst 1.1 quantitation software.

[4] = system: HEK cells; experiment: pH assay of uptake by transporters naturally expressed in HEK cells, with and without phloretin; format: cell-based, human; conditions: phloretin 0.5 mM, FIG. 1
Protocol: Although HEK's are a kidney derived cell line, they express some of the same transporters as the colon and can be used as a preliminary screen to identify substrates of colon-expressed transporters.
Cells were seeded at 100,000/well in 96 black, clear bottom plate overnight and washed twice in 100 μL buffer I at room temperature.
Cells were loaded with […] 2,7-bis-(2-carboxyethyl)-5-carboxyfluoroscein acetoxymethyl ester (BCECF AM) (resuspended in 50:50 dimethylsulfoxide:Pluronic™ surfactant mixture) in buffer 1 for 15 min. at 37° C. at 50 μL/well.
The rest of the protocol was performed at room temperature.
Cells were washed twice in buffer 2 at 50 μL/well. A first reading was taken in FLEX station in the buffer 2 at two sets of fluorescence excitation/emission wavelengths, 440/535 and 490/535, with 50 μL buffer/well. […] A second reading was taken in FLEX station at above settings (T0). […] A third reading was taken in FLEX station at above settings (T1). […]
For each well, values for A, B and C were calculated using the T0 and T1 data and the following equations:
A=measured fluorescence at excitation/emission wavelengths 440/535−background
B=measured fluorescence at excitation/emission wavelengths 490/535−background
The C values for the T0 and T1 data were used to determine the percent decrease in fluorescence at T1 relative to T0. […]

| SMILES | IC50 [1] [µM] | % Max. (Biotin) [2] [%] | Colonic uptake determined from plasma concentration of gabapentin [3] | Uptake by HEK cells in presence and absence of transporter inhibitor phloretin [4] |
| --- | --- | --- | --- | --- |
| CC(=O)OC(C)OC(=O)NCC1(CC(=O)O)CCCCC1 (stereo not drawn) [Compound IV, gabapentin acetoxyethyl carbamate] | 80 |  |  |  |
| NCC1(CC(=O)O)CCCCC1 [Gabapentin, reference compound] |  | 0 | not taken up significantly |  |
| CC(C)(C)C(=O)OCOC(=O)NCC1(CC(=O)O)CCCCC1 [Compound I, gabapentin pivaloxymethyl carbamate] |  | 21 | taken up best | phloretin substantially inhibits uptake of Compound I |
